Assay results as given in patent publication US20250011318A1 (ARCUS BIOSCIENCES, INC., priority 2023, published 2025).

Legend:
Cbl-b = molecular target: T1, Cbl-b (Homo sapiens, UniProt Q13191); assay: Cbl-b probe displacement HTRF binding assay; settings: 0.4 nM biotinylated Cbl-b, 150 nM BODIPY probe
T1 construct: biotin (biotinylated)
Method in brief: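 Biotinylated Cbl-b (0.4 nM) preincubated 60 min at RT with compound (20-point 1:2 series, 10 μM top), then 150 nM BODIPY probe for 15 min, then streptavidin-terbium detection. Buffer: 20 mM Hepes, 150 mM NaCl, 0.01% Triton X-100, 0.5 mM TCEP, 0.01% BSA. Loss of HTRF signal gave IC50 via four-parameter fit.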

Jurkat cells = assay: IL-2 secretion assay in CD3/CD28-activated Jurkat cells (AlphaLISA); assay type: cell-based, human; settings: Homo sapiens, CD3/CD28 T Cell Activator, 24 h, IL-2 AlphaLISA
Method in brief: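 Jurkat cells (50,000/well) preincubated 1 h at 37° C with compound (16-point 1:2 series, final 10 μM to 300 pM) in Opti-MEM, then stimulated with CD3/CD28 activator for 24 h. Supernatant IL-2 read by AlphaLISA; EC50 from 4-parameter logistic fit.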

T1 sequence (Q13191 whole entry, species assumed): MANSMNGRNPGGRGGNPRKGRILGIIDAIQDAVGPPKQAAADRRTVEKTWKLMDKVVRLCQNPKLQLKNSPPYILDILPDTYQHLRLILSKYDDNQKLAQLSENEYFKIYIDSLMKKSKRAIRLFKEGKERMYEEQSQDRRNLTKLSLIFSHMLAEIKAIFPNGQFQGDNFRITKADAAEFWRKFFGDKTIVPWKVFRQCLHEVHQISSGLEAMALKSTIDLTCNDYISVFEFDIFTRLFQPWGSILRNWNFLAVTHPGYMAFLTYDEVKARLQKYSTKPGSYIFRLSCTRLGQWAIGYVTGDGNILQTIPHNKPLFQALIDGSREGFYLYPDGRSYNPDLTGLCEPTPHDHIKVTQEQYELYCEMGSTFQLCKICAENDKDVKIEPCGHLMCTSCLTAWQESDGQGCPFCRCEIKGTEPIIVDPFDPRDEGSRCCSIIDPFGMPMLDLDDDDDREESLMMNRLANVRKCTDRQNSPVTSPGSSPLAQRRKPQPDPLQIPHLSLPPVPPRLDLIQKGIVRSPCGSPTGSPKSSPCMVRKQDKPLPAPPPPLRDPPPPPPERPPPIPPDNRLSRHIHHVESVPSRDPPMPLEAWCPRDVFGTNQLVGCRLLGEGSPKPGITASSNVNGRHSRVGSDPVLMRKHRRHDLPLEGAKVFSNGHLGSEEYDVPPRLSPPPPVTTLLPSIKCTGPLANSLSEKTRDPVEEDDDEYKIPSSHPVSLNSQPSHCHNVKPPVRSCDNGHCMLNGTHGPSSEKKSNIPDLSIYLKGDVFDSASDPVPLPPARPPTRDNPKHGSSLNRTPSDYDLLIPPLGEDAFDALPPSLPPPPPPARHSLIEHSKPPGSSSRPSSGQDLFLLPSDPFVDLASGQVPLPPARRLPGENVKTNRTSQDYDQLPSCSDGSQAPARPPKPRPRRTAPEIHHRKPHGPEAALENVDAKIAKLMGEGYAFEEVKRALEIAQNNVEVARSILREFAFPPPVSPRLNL

| SMILES | IC50 (Cbl-b) [nM] | EC50 (Jurkat cells) [nM] |
| --- | --- | --- |
| Cn1cnnc1-c1cc(F)ccc1-c1cc(C2CC2)nc(-n2cc(C(F)(F)F)c3nc(CC4CCC4)[nH]c3c2=O)c1 [Example 42, 2-(Cyclobutylmethyl)-5-{6-cyclopropyl-4-[4-fluoro-2-(4-methyl-4H-1,2,4-triazol-3-yl)phenyl]-2-pyridyl}-7-(trifluoromethyl)-3,5-dihydro-1,3,5-triaza-4-indenone] | < 100 | < 100 |
| C[C@H]1CCCN(Cc2cc3c(C4CC4)cn(-c4cc(-c5c(-c6nncn6C)cnn5C)cc(Cl)n4)c(=O)c3[nH]2)C1 [Example 25, 2-{[(S)-3-Methyl-1-piperidyl]methyl}-6-{6-chloro-4-[1-methyl-4-(4-methyl-4H-1,2,4-triazol-3-yl)-5-pyrazolyl]-2-pyridyl}-4-cyclopropyl-1,6-dihydro-1,6-diaza-7-indenone] | < 100 | < 100 |
| C[C@H]1CCCN(Cc2cc3c(C4CC4)cn(-c4cc(-c5ccc(C#N)cc5-c5nncn5C)cc(C5CC5)n4)c(=O)c3[nH]2)C1 [Example 2, 4-[2-(2-{[(S)-3-methyl-1-piperidyl]methyl}-4-cyclopropyl-7-oxo-1,6-dihydro-1,6-diaza-6-indenyl)-6-cyclopropyl-4-pyridyl]-3-(4-methyl-4H-1,2,4-triazol-3-yl)benzonitrile] | < 100 | < 100 |
| C[C@H]1CCCN(Cc2cc3c(C4CC4)cn(-c4cc(-c5ccc(C#N)cc5-c5nc(C(F)(F)F)cn5C)cc(C5CC5)n4)c(=O)c3[nH]2)C1 [Example 117, 4-[2-(2-{[(S)-3-methyl-1-piperidyl]methyl}-4-cyclopropyl-7-oxo-1,6-dihydro-1,6-diaza-6-indenyl)-6-cyclopropyl-4-pyridyl]-3-[1-methyl-4-(trifluoromethyl)-2-imidazolyl]benzonitrile] | < 100 | 100 to 1000 |
| COC[C@H](C)NCc1cc2ncn(-c3cc(-c4ccc(F)cc4-c4nc(C#N)cn4C)cc(C4CC4)n3)c(=O)c2[nH]1 [Example 111, 2-[2-[2-cyclopropyl-6-[6-[[[(2S)-1-methoxypropan-2-yl]amino]methyl]-4-oxo-5H-pyrrolo[3,2-d]pyrimidin-3-yl]pyridin-4-yl]-5-fluorophenyl]-1-methylimidazole-4-carbonitrile] | < 100 | < 100 |
| COCCNC(c1cc2ncn(-c3cc(-c4ccc(F)cc4-c4nncn4C)cc(C4CC4)n3)c(=O)c2[nH]1)C(F)(F)F (centres unmarked) [Example 36, 6-{6-cyclopropyl-4-[4-fluoro-2-(4-methyl-4H-1,2,4-triazol-3-yl)phenyl]-2-pyridyl}-2-[2,2,2-trifluoro-1-(2-methoxyethylamino)ethyl]-1,6-dihydro-1,4,6-triaza-7-indenone] | < 100 | 100 to 1000 |
| Cn1cnnc1-c1cc(F)ccc1-c1cc(C2CC2)nc(-n2cc(C#N)c3cc(C(N)c4cccnc4)[nH]c3c2=O)c1 (centres unmarked) [Example 94, 2-[Amino(3-pyridyl)methyl]-6-{6-cyclopropyl-4-[4-fluoro-2-(4-methyl-4H-1,2,4-triazol-3-yl)phenyl]-2-pyridyl}-7-oxo-1,6-dihydro-1,6-diaza-4-indenecarbonitrile] | < 100 | 100 to 1000 |
| Cc1c[nH]nc1-c1cc(C#N)ccc1-c1cc(C2CC2)nc(-n2cc(C3CC3)c3cc(CNCC4(O)CCC4)[nH]c3c2=O)c1 [Example 20, 4-[2-cyclopropyl-6-[4-cyclopropyl-2-[[(1-hydroxycyclobutyl)methylamino]-methyl]-7-oxo-1H-pyrrolo[2,3-c]pyridin-6-yl]pyridin-4-yl]-3-(4-methyl-1H-pyrazol-3-yl)benzonitrile] | < 100 | 100 to 1000 |
| C[C@H]1CCCN(Cc2nc3c(C(F)(F)F)cn(-c4cc(-c5ccc(F)cc5-c5nncn5C)cc(C5CC5)n4)c(=O)c3[nH]2)C1 [Example 50, 5-[6-cyclopropyl-4-[4-fluoro-2-(4-methyl-1,2,4-triazol-3-yl)phenyl]pyridin-2-yl]-2-[[(3S)-3-methylpiperidin-1-yl]methyl]-7-(trifluoromethyl)-3H-imidazo[4,5-c]pyridin-4-one] | < 100 | < 100 |
| COCCNCc1cc2ncn(-c3cc(-c4ccc(F)cc4-c4nc(C#N)cn4C)cc(C4CC4)n3)c(=O)c2[nH]1 [Example 107, 2-[2-[2-cyclopropyl-6-[6-[(2-methoxyethylamino)methyl]-4-oxo-5H-pyrrolo[3,2-d]pyrimidin-3-yl]pyridin-4-yl]-5-fluorophenyl]-1-methylimidazole-4-carbonitrile] | < 100 | < 100 |
| C[C@H]1CCCN(Cc2cc3c(C#N)cn(-c4cc(-c5ccc(C#N)cc5-c5nccn5C)cc(C5CC5)n4)c(=O)c3[nH]2)C1 [Example 84, 2-{[(S)-3-methyl-1-piperidyl]methyl}-6-{4-[4-cyano-2-(1-methyl-2-imidazolyl)phenyl]-6-cyclopropyl-2-pyridyl}-7-oxo-1,6-dihydro-1,6-diaza-4-indenecarbonitrile] | < 100 | < 100 |
| C[C@@H]1CN(Cc2cc3c(C4CC4)cn(-c4cc(-c5ccc(F)cc5-c5nccn5C)cc(C5CC5)n4)c(=O)c3[nH]2)CCO1 [Example 54, 2-{[(R)-2-methyl-4-morpholinyl]methyl}-4-cyclopropyl-6-{6-cyclopropyl-4-[4-fluoro-2-(1-methyl-2-imidazolyl)phenyl]-2-pyridyl}-1,6-dihydro-1,6-diaza-7-indenone] | < 100 | < 100 |
| CCn1ccnc1-c1cc(F)ccc1-c1cc(C2CC2)nc(-n2cc(C3CC3)c3cc(CN4CCO[C@H](C)C4)[nH]c3c2=O)c1 [Example 64, 2-{[(R)-2-methyl-4-morpholinyl]methyl}-4-cyclopropyl-6-{6-cyclopropyl-4-[2-(1-ethyl-2-imidazolyl)-4-fluorophenyl]-2-pyridyl}-1,6-dihydro-1,6-diaza-7-indenone] | < 100 | 100 to 1000 |
| C[C@H]1CCCN(Cc2cc3c(C4CC4)cn(-c4cc(-c5ccc(F)cc5-c5ncnn5C)cc(C5CC5)n4)c(=O)c3[nH]2)C1 [Example 119, 4-Cyclopropyl-6-[6-cyclopropyl-4-[4-fluoro-2-(2-methyl-1,2,4-triazol-3-yl)phenyl]pyridin-2-yl]-2-[[(3S)-3-methylpiperidin-1-yl]methyl]-1H-pyrrolo[2,3-c]pyridin-7-one] | < 100 | 100 to 1000 |
| Cn1ccnc1-c1cc(F)ccc1-c1cc(C2CC2)nc(-n2cc(C3CC3)c3cc(CN[C@@H]4CCCOC4)[nH]c3c2=O)c1 [Example 57, 2-{[(R)-tetrahydro-2H-pyran-3-ylamino]methyl}-4-cyclopropyl-6-{6-cyclopropyl-4-[4-fluoro-2-(1-methyl-2-imidazolyl)phenyl]-2-pyridyl}-1,6-dihydro-1,6-diaza-7-indenone] | < 100 | < 100 |
| COCCN(C)Cc1cc2ncn(-c3cc(-c4ccc(F)cc4-c4nncn4C)cc(C4CC4)n3)c(=O)c2[nH]1 [Example 34, 3-[6-cyclopropyl-4-[4-fluoro-2-(4-methyl-1,2,4-triazol-3-yl)phenyl]pyridin-2-yl]-6-[[2-methoxyethyl(methyl)amino]methyl]-5H-pyrrolo[3,2-d]pyrimidin-4-one] | < 100 | < 100 |
| COCCN(C)Cc1cc2ncn(-c3cc(-c4ccc(F)cc4-c4nc(C#N)cn4C)cc(C4CC4)n3)c(=O)c2[nH]1 [Example 108, 2-{2-[6-cyclopropyl-2-(2-{[(2-methoxyethyl)-N-methylamino]methyl}-7-oxo-1,6-dihydro-1,4,6-triaza-6-indenyl)-4-pyridyl]-5-fluorophenyl}-1-methyl-4-imidazolecarbonitrile] | < 100 | < 100 |
| N#Cc1c[nH]c2c(=O)n(-c3cc(-c4ccc(F)cc4-c4nncn4C(F)F)cc(C4CC4)n3)cc(C(F)(F)F)c12 [Example 134, 6-[6-cyclopropyl-4-[2-[4-(difluoromethyl)-1,2,4-triazol-3-yl]-4-fluorophenyl]pyridin-2-yl]-7-oxo-4-(trifluoromethyl)-1H-pyrrolo[2,3-c]pyridine-3-carbonitrile] | < 100 | < 100 |
| Cn1cnnc1-c1cc(F)ccc1-c1cc(C2CC2)nc(-n2cc(C#N)c3c(C#N)n[nH]c3c2=O)c1 [Example 27, 6-{6-cyclopropyl-4-[4-fluoro-2-(4-methyl-4H-1,2,4-triazol-3-yl)phenyl]-2-pyridyl}-7-oxo-1,6-dihydro-1,2,6-triaza-3,4-indenedicarbonitrile] | 100 to 1000 | > 5000 |
| Cn1cnnc1-c1cc(F)ccc1-c1cc(C2CC2)nc(-n2cc(C#N)c3cc([C@@H](N)C(F)(F)F)[nH]c3c2=O)c1 [Example 97, 2-[(R)-1-amino-2,2,2-trifluoroethyl]-6-{6-cyclopropyl-4-[4-fluoro-2-(4-methyl-4H-1,2,4-triazol-3-yl)phenyl]-2-pyridyl}-7-oxo-1,6-dihydro-1,6-diaza-4-indenecarbonitrile] | < 100 | 100 to 1000 |
| [2H]C([2H])([2H])n1ccnc1-c1cc(C#N)ccc1-c1cc(C2CC2)nc(-n2cc(C3CC3)c3cc(CN4CCC[C@H](C)C4)[nH]c3c2=O)c1 [Example 14, 4-[2-(2-{[(S)-3-methyl-1-piperidyl]methyl}-4-cyclopropyl-7-oxo-1,6-dihydro-1,6-diaza-6-indenyl)-6-cyclopropyl-4-pyridyl]-3-{1-[(^2H3)methyl]-2-imidazolyl}benzonitrile] | < 100 | < 100 |
| C[C@H]1CCCN(Cc2cc3c(C4CC4)cn(-c4cc(-c5ccc(C(F)(F)F)cc5-c5nccn5C)cc(C5CC5)n4)c(=O)c3[nH]2)C1 [Example 83, 4-Cyclopropyl-6-[6-cyclopropyl-4-[2-(1-methylimidazol-2-yl)-4-(trifluoromethyl)phenyl]pyridin-2-yl]-2-[[(3S)-3-methylpiperidin-1-yl]methyl]-1H-pyrrolo[2,3-c]pyridin-7-one] | < 100 | < 100 |
